Experimental data: US3953604A, “1-(2-Substituted-chromonyloxy)-2-hydroxy-3-(substituted phenoxy)propanes” (priority 1973, dated 1976)
Several values for one entry are separate records, joined by “and”; a condition that tells them apart may be missing. Identical values can stand only once. Counter-ions that a name gives are not always drawn.

Experiments:
[1] = system: passive cutaneous anaphylaxis; assay: duration of antiallergic activity by the PCA test, compared directly with DSCG; format: in vivo; conditions: rat; for Mean Reaction Diameters in Milimeters After 25 μ moles/kg of Test Compound: 25 μ moles/kg test compound 10 minutes before egg albumin antigen, groups of 10 animals
Experimental: (§1) The intensity of such PCA reaction is assessed by measuring the diameters of wheals which develop in the skin of the test animal. Details of the PCA test can be found in the following references: I. Motar, Life Sciences, 1:465 (1963); and B. Ogilvie, Immunology, 12:113 (1967).
The duration of antiallergic activity of compounds representative of the above examples was also determined by the PCA test described in Example 66. In each case, 25 μ moles of the test compound were administered 10 minutes before injection of the egg albumin antigen in rats. The following table reports the mean reactions diameters of wheals in milimeters for the compounds described in the above Examples and disodium cromoglycate (DSCG). In order to achieve maxium significance of results, the effect of each compound was compared directly with DSCG using groups of 10 animals selected at random from the same population.

[2] = acute toxicity tests, intravenous, animals observed for one week; conditions: in vivo, rat, dose is the maximum possible, limited by solubility, read-out: Therapeutic Ratio (Dose/ID50)
Experimental: Acute toxicity of compounds representative of the above Examples was determined in rats. The test compounds were administered intravenously in either 40 ml/kg of physiological saline or […] and saline. Compounds which are insoluble in saline were administered in […] and saline. Doses administered represent the maximun dose possible and are limited by solubility factors. ID50 in the table is used as defined in Example 66. Test compounds are identified by their respective Example Number, above.

[3] = system: allergic bronchial asthma; conditions: in vivo; cited from earlier work
[4] = system: passive cutaneous anaphylaxis; assay: passive cutaneous anaphylaxis test (PCA), egg albumin as the antigen: antiallergic activity; format: in vivo; conditions: iv; rat; injected intravenously together with the antigen; at least 3 groups of 5 rats; read-out: ID50 (dose which reduced the diameter of the wheel by 50%)
Experimental: Compounds representative of the above examples were evaluated for antiallergic activity in the rat by the passive cutaneous anaphylaxis test (hereafter PCA), utilizing egg albumin as the antigen.
as §1
In the following table, ID50 is the dose which reduced the diameter of the wheel by 50% when injected intravenously together with the antigen. At least 3 groups of 5 rats were used to determine the ID50 for each compound tested. The reference compound utilized was disodium chromoglycate (DSCG). The test compounds are identified by their respective Example Numbers above.

Row | SMILES | Mean Reaction Diameters in Milimeters After 25 μ moles/kg of DSCG ([1]; 25 μ moles/kg DSCG 10 minutes before egg albumin antigen, direct comparison with the test compound of the same line, disodium salt) | selectivity ratio at 168 h [2] | untoward side effects [3] | ED50 [4] [µmol/kg] | Mean Reaction Diameters in Milimeters After 25 μ moles/kg of Test Compound [1] [Milimeters]
1 | O=C(O)c1cc(=O)c2c(OCC(O)COc3cccc4oc(C(=O)O)cc(=O)c34)cccc2o1 [DSCG, 1,3-di(2-carboxy-4-oxochromon-5-yloxy)-2-hydroxy-propane disodium salt, reference compound] | 13.4 ± 0.3 Milimeters and 10.6 ± 0.7 Milimeters and 9.7 ± 0.3 Milimeters and 8.9 ± 0.8 Milimeters and 8.6 ± 0.3 Milimeters and 12.3 ± 0.2 Milimeters | > 1150 | several untoward side effects | – | –
2 | O=C(O)c1cc(=O)c2c(OCC(O)COc3ccccc3)cccc2o1 (centres unmarked) [Example 4, 1-(2-Carboxychromon-5-yloxy)-2-Hydroxy-3-Phenoxypropane Sodium Salt] | – | > 339 | – | 6.25 | 13.0 ± 0.3
3 | O=C(O)c1cc(=O)c2c(OCC(O)COc3ccc(Br)cc3)cccc2o1 (centres unmarked) [Example 8, 1-(2-Carboxychromon-5-yloxy)-2-Hydroxy-3-p-Bromophenoxypropane Sodium Salt] | – | > 40 | – | 6.5 | 6.4 ± 0.4
4 | O=C(O)c1cc(=O)c2c(OCC(O)COc3ccc(Cl)cc3)cccc2o1 (centres unmarked) [Example 11, 1-(2-Carboxychromon-5-yloxy)-2-Hydroxy-3-p-Chlorophenoxypropane] | – | > 43 | – | 5.5 | 2.8 ± 0.4
5 | COc1ccc(OCC(O)COc2cccc3oc(C(=O)O)cc(=O)c23)cc1 (centres unmarked) [Example 15, 1-(2-Carboxychromon-5-yloxy)-2-Hydroxy-3-p-Methoxyphenoxypropane Sodium Salt] | – | > 62 | – | 20 | 11.0 ± 0.5
6 | Cc1ccccc1OCC(O)COc1cccc2oc(C(=O)O)cc(=O)c12 (centres unmarked) [Example 19, 1-(2-Carboxychromon-5-yloxy)-2-Hydroxy-3-o-Cresyloxypropane Sodium Salt] | – | > 281 | – | 7 | 10.3 ± 0.2
7 | CCOC(=O)c1cc(=O)c2c(OCC(O)COc3ccc(C#N)cc3)cccc2o1 (centres unmarked) [Example 34, 1-(2-Carbethoxychromon-5-yloxy)-2-Hydroxy-3-p-Cyanophenoxypropane] | – | > 84 | – | 2.5 | –
8 | N#Cc1ccc(OCC(O)COc2cccc3oc(C(=O)O)cc(=O)c23)cc1 (centres unmarked) [Example 35, 1-(2-Carboxychromon-5-yloxy)-2-Hydroxy-3-p-Cyanophenoxypropane Sodium Salt] | – | > 3170 | – | 0.75 | 8.9 ± 0.7
9 | O=C(O)c1cc(=O)c2c(OCC(O)COc3ccc([N+](=O)[O-])cc3)cccc2o1 (centres unmarked) [Example 38, 1-(2-Carboxychromon-5-yloxy)-2-Hydroxy-3-p-Nitrophenoxypropane Sodium Salt] | – | > 173 | – | 3.6 | 11.2 ± 0.3
10 | O=C(O)c1cc(=O)c2ccc(OCC(O)COc3ccccc3)cc2o1 (centres unmarked) [Example 41, 1-(2-Carboxychromon-7-yloxy)-2-Hydroxy-3-Phenoxypropane Sodium Salt] | – | – | – | 14 | –
11 | CCOC(=O)c1ccc(OCC(O)COc2cccc3oc(C(=O)O)cc(=O)c23)cc1 (centres unmarked) [Example 44, 1-(2-Carboxychromon-5-yloxy)-2-Hydroxy-3-p-Carbethoxyphenoxypropane Sodium Salt] | – | – | – | 8.25 | 6.1 ± 0.4
12 | CC(=O)c1c(O)cccc1OCC(O)COc1cccc(C(F)(F)F)c1 (centres unmarked) [Example 57, 1-(2-Acetyl-3-hydroxphenoxy)-2-Hydroxy-3-(m-trifluoromethylphenoxy) propane] | – | – | – | – | 8.4 ± 0.5
13 | O=C(O)c1cc(=O)c2c(OCC(O)COc3ccc(Cl)cc3Cl)cccc2o1 (centres unmarked) [Example 62, 1-(2-Carboxychromon-5-yloxy)-2-Hydroxy-3-(2,4-dichlorophenoxy) propane Sodium Salt] | – | – | – | – | 1.3 ± 0.5
14 | O=C(O)c1cc(=O)c2c(OCC(O)COc3ccc(F)cc3)cccc2o1 (centres unmarked) [Example 65, 1-(2-Carboxychromon-5-yloxy)-2-Hydroxy-3-(p-fluorophenoxy)propane Sodium Salt] | – | – | – | – | 12.2 ± 0.2
